Laboratory results taken from patent US9597271B2, “Cosmetic compositions and methods” (The Procter & Gamble Company, priority 2013, dated 2017).
Where “and” joins values, the source holds several entries; their conditions need not be identical. Identical values can stand only once.

Experiments:
[1] = molecular target: T1, 20S proteasome (Mus musculus, UniProt O55234); assay: Proteasomal protease in vitro assay (ProteasomeGlo, Suc-LLVY luminogenic substrate) in B16 melanoma cells; assay type: cell-based; conditions: for Fold Change Over Control (luminescence): B16 melanoma cells; for Ricinoleate concentration at which synergy with niacinamide is statistically significant: combined with 250 μM niacinamide
T1 construct: endogenous in cells; host or cells: B16 melanoma cells (lysate after 20-24 h treatment)
T1 sequence (O55234 60-264): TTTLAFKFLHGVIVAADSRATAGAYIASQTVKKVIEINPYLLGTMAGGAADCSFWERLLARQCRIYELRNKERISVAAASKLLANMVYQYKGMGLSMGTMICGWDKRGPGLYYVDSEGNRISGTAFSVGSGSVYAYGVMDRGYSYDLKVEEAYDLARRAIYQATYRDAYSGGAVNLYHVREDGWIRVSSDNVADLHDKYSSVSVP
Experimental: The following proteasomal protease in vitro assay was employed for evaluating activity associated with this pathway. Cultures of B16 melanoma cells (about 25% confluence) were treated with a culture media (Dulbecco's Modified Eagle Medium, 11995-065 Life technologies supplemented with 5% Fetal Bovine Serum, 30-2020, American Tissue Culture Collection and 1% Penicillin/streptomycin, 15140, Life Technologies) and one of 1) a vehicle (DMSO) containing niacinamide, 2) a vehicle (DMSO) containing one of glycerol ricinoleate, sodium ricinoleate and butyl acetyl ricinoleate at varying dilutions, 3) a vehicle (DMSO) containing a combination of niacinamide and one of the ricinoleate compounds listed above, and 4) a vehicle (DMSO) containing 2-hexyl-decanol as a positive control. The final dilution of DMSO in the culture medium was 1% in all instances. The treated melanoma cells were incubated in multi-well plates at 37° C. in a CO2 incubator for a period of 20 to 24 hours. The treated cells were thereafter lyzed by removing the culture medium and replacing it with 100 uL/well of CellGlo lysis reagent (available from Promega, Wis., USA) followed by incubation at room temperature for about 10 minutes. A luminogenic substrate containing a Suc-LLVY peptide sequence recognized by the 20S proteasome was added to the B16 cultures, and the mixtures were incubated in multi-well plates at a temperature of 25° C. for approximately 10 minutes. Luminescence counts (a unit less measurement from the plate reader) from developing the cleaved substrate with luciferase detection system (ProteasomeGlo® from Promega, Madison, Wis.) was measured in an Envision Plate Reader (Perkin Elmer, Waltham, Mass.). Other plate luminometer/luminescence readers may also be used as known in the art.
Luminescence counts for treatment groups were divided by the luminescence counts from the vehicle control (1% DMSO, as diluted in the culture medium). […] 2-hexyldecanol, a known skin tone agent, was also previously found to activate this proteasomal chymotryptic protease activity. See, e.g., Hakozaki et al., A regulator of ubiquitin-proteasome activity, 2-hexyldecanol, suppresses melanin synthesis and the appearance of facial hyperpigmented spots, British Journal of Dermatology 2013, 169 (Supp 2), pp 39-44.

[2] = molecular target: T1, 20S proteasome; conditions: previously found, Hakozaki et al. 2013; cited from earlier work
[3] = experiment #1, N=3, 20 to 24 hours, DMSO vehicle
[4] = experiment #2, N=3, 20 to 24 hours, DMSO vehicle
[5] = vitamin B3 compound alone, 250 uM, B16 cells, average of 3 replicates
[6] = ricinoleate compound alone, 0.000064 w/v %, B16 cells
[7] = ricinoleate compound alone, 0.00032 w/v %, B16 cells
[8] = ricinoleate compound alone, 0.0016 w/v %, B16 cells
[9] = ricinoleate compound alone, 0.008 w/v %, B16 cells

Row | Fold Change Over Control (luminescence) ([1]; Avg. of experiments #1 and #2) | Fold Change Over Control (luminescence) [1, 3] | Fold Change Over Control (luminescence) [1, 4] | Net Luminescence (treatment luminescence counts − vehicle control luminescence counts) [1, 5] | Net Luminescence (treatment luminescence counts − vehicle control luminescence counts) [1, 6] | Net Luminescence (treatment luminescence counts − vehicle control luminescence counts) [1, 7] | Net Luminescence (treatment luminescence counts − vehicle control luminescence counts) [1, 8] | Net Luminescence (treatment luminescence counts − vehicle control luminescence counts) [1, 9] | Compound | further results
1 | 1.16 | 1.15 | 1.17 |  |  |  |  |  | CCCCCCCCC(CO)CCCCCC (stereo not shown) [2-hexyldecanol, reference compound] | Activation of proteasomal chymotryptic protease activity (in words) [2]: activate
2 |  |  |  | 105 |  |  |  |  | OCc1cccnc1 [3-pyridinemethanol] | 
3 | 1.29 | 1.32 | 1.26 |  | 1224 | 2164 | 2357 | 2439 | CCCCCC[C@H](C/C=C\CCCCCCCC(=O)OCCCC)OC(C)=O [Butyl acetyl ricinoleate, butyl acetyl ricinoleate] | Ricinoleate concentration at which synergy with niacinamide is statistically significant ([1]; B16 cells): ≥ 0.00032%
4 | 1.17 | 1.15 | 1.18 |  | 123 | 534 | 839 | 867 | CCCCCC[C@@H](O)C/C=C\CCCCCCCC(=O)OCC(O)CO (stereo partly shown) [Glyceryl ricinoleate, glyceryl ricinoleate] | Net Luminescence (treatment luminescence counts − vehicle control luminescence counts) ([1]; ricinoleate compound alone, 0.00032 w/v %, B16 cells, listed as GR): 287 and 518; Net Luminescence (treatment luminescence counts − vehicle control luminescence counts) ([1]; ricinoleate compound alone, 0.0016 w/v %, B16 cells, listed as GR): 745 and 1258; Net Luminescence (treatment luminescence counts − vehicle control luminescence counts) ([1]; ricinoleate compound alone, 0.008 w/v %, B16 cells, listed as GR): 789 and 1125
5 |  |  |  | 162 |  |  |  |  | COC(=O)c1cccnc1 [Methyl niconate, methyl niconate] | 
6 |  |  |  |  |  |  |  | 4222 | CCCCCC[C@@H](O)C/C=C\CCCCCCCC(=O)OC [Methyl ricinoleate, methyl ricinoleate] | Ricinoleate concentration at which synergy with niacinamide is statistically significant ([1]; B16 cells): 0.008%
7 |  |  |  | 303 |  |  |  |  | O=C(O)c1cccnc1 [Nicotinic acid, nicotinic acid] | 
8 | 1.24 | 1.26 | 1.21 |  | 123 | 878 | 1805 | 2164 | CCCCCC[C@@H](O)C/C=C\CCCCCCCC(=O)[O-].[Na+] [Sodium ricinoleate, sodium ricinoleate] | 

Row | Compound | Fold Change Over Control (luminescence) ([1]; Avg. of experiments #1 and #2) | Fold Change Over Control (luminescence) [1, 3] | Fold Change Over Control (luminescence) [1, 4] | Net Luminescence (treatment luminescence counts − vehicle control luminescence counts) [1, 5] | Net Luminescence (treatment luminescence counts − vehicle control luminescence counts) [1, 6] | Net Luminescence (treatment luminescence counts − vehicle control luminescence counts) [1, 7] | Net Luminescence (treatment luminescence counts − vehicle control luminescence counts) [1, 8] | Net Luminescence (treatment luminescence counts − vehicle control luminescence counts) [1, 9] | further results
9 | NC(=O)c1cccnc1 [Niacinamide, niacinamide] |  |  |  | 158 (4×) and 257 (8×) and 1503 |  |  |  |  | Activation of proteasomal protease activity, single agent (in words) ([1]; B16 cells): lower level of activation
10 | nicotinamide ribose |  |  |  | 392 |  |  |  |  | 
